The source of these data is patent publication US20220380341A1, “INHIBITORS OF HIV-1 NEF FOR THE TREATMENT OF HIV DISEASE” (priority 2018, published 2022).

The test system of one data set is HIV-1 NL4-3. Kind of data set: HIV-1 replication in normal donor PBMCs (p24 Gag AlphaLISA). Type of data set: cell-based. Conditions: Table 1, 4 days; for HIV Replication PBMC IC50 vs. HIV NL4-3: words (Not active, Borderline) where no bound is given. The procedure:
FIG. 4. Inhibition of HIV-1 replication by compounds disclosed herein in PBMCs. Donor PBMCs were infected with HIV-1 in the presence of inhibitor concentrations ranging from 1 to 1,000 nM or the DMSO carrier solvent as a negative control (0.1% DMSO final). Replication was assessed by p24 Gag AlphaLISA (Perkin Elmer) […]. Each donor was also infected with Nef-defective HIV-1 to establish the baseline for Nef-dependent enhancement of replication in each culture. Cytotoxicity was assessed in uninfected PBMCs over the same incubation period using the CellTiter-Blue assay (Promega). Data were fit by non-linear regression analysis (GraphPad Prism v.7.04) to determine the IC50 and CC50 values shown.
The tables also show data for HIV-1 Replication in normal donor peripheral blood mononuclear cells (PBMCs), which is assay is conducted as follows:
Non-HLA-typed buffy coats (Source: Pittsburgh Central Blood Bank, #E3755) are received and processed within 24 hours of blood donation. PBMCs are isolated via rocking for RBC separation following 1:1 dilution with PBS, followed by Ficoll gradient centrifugation. The lymphocyte fraction is removed and washed several times for a final concentration of ˜150-300×10^6 cells per donor. Cells are activated for 3 days with 1-5 μg/mL PHA (Sigma) and 50 U/mL IL-2. Cells are plated at 750,000 cells/ml and viability is checked at day 3 using the Cell Titer Blue assay (Promega). If cells are >90% viable, then they are infected with HIV-1 NL4-3, wild-type or Δ-Nef mutant (input typically 30-500 pg/mL p24 capsid equivalents) in the presence or absence of Nef inhibitor analogs. IL-2 is included in the media at the time of infection. After 4 days, cells are lysed with 1% Triton X-100 for 1.5 h, checked for viability via Cell Titer Blue, and frozen/stored at −20° C. HIV-1 replication is assessed with a high-sensitivity HIV-1 p24 AlphaLISA assay (Perkin Elmer) in ½-volume 96-well plates, using one-half of the recommended assay volumes for all reagents (including samples). Assays are read on the BioTek Cytation5 instrument; readout is in AlphaUnits and replication in p24 pg/mL is determined using an HIV-1 p24 capsid protein standard included in the Alpha kit.
(In general: Bead proximity is the source of the signal in Alpha formats.)

Another data set concerns TZM-bl cell line. Type of data set: cell-based. To be noted: human, 1 μM. In short, it runs like this:
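Luciferase read-out 48 h post-infection; compound at 1 μM during HIV-1NL4-3 infection of TZM-bl cells. Percent inhibition scaled to DMSO wild-type virus (0%) and DMSO Nef-defective virus (100% of Nef-dependent effect). Viability checked separately in uninfected cells by Cell Titer Blue.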

In a further data set the target is HIV-1 NefNL4-3 (Human immunodeficiency virus type 1 group M subtype B, UniProt P03406, A33V/T15A/T51N/V11I). Put plainly: Surface plasmon resonance binding to recombinant full-length Nef (NL4-3). To be noted: for RU30/RUNef (extent of binding): response units at 30 μM relative to Nef immobilized on the SPR chip; for T, minutes (residence time): 2-step induced fit, T = 1/koff2. (In general: In SPR one partner is held on a chip, and binding of the other changes the refractive index at the surface.)

A further data set has as its system HIV-1NL4-3. Kind of data set: HIV-1 infectivity assay in TZM-bl reporter cell line (LTR-luciferase, 48 h). It is filed as cell-based. To be noted: Human immunodeficiency virus 1, TZM-bl. In short, it runs like this: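 TZM-bl cells infected with HIV-1NL4-3 ± compound (1 μM), luciferase measured at 48 h. Normalization: DMSO/wild-type = 0% inhibition, DMSO/Nef-defective = 100% of Nef-dependent effect.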

Where [1] appears, read: read-out: Nef NL4-3 Binding, SPR 1:1 or 2-site fitting KD2, Table 1, 2-site fit, second component.
Where [2] appears, read: 1.0 μM, TZM-bl reporter cell line, Table 4, read-out: % Infectivity Inhibition.
Where [3] appears, read: 48 h, Table 1, TZM-bl cells, 1 μM, 48 h, 100% = Nef-defective HIV-1, read-out: HIV-1 Infectivity % Inhibition Norm. to Δ-Nef @ 1 μM.
Setting [4] is: KD, M, Table 4, SPR fit 2-step induced fit, KD = koff/kon × koff2/(koff2 + kon2).
Where [5] appears, read: Nef NL4-3 Binding, SPR 2-state fitting KD, Table 1, 2-step induced-fit model.

Where two headings read alike, the source gives them in different places. Where only a bound is given, the exact number is not on record here.

In general, inhibition refers to the change of the read-out against control, counted positive when it falls. Usually IC50 stands for the concentration that gives 50% inhibition. The low end stands for greater potency, the high end for weaker potency.

Turning to `Oc1c(CCc2ccc(F)cc2)c(-c2ccc(C(F)(F)F)cn2)nn1-c1nc2ccccc2[nH]1` [Compound I-119, 1-(1H-1,3-benzodiazol-2-yl)-4-[2-(4-fluorophenyl)ethyl]-3-[5-(trifluoromethyl)pyridin-2-yl]-1H-pyrazol-5-ol], in the data set with HIV-1 NL4-3, the “HIV Replication PBMC IC50 vs. HIV NL4-3” value was “Not active”. Besides, in the data set on TZM-bl cell line, the “% Cell Viability” value was found to be 77.1% and the “Percent Viability @ 1 μM (TZM-bl cells)” value is given as 77.1%. On HIV-1 NefNL4-3, the Kd is 0.0189 nM and the “RU30/RUNef (extent of binding)” value was determined as 7.52E- 03. Also, on HIV-1 NefNL4-3 (setting [1]), the Kd worked out at 6830 nM. Also, in the data set on HIV-1NL4-3 (setting [2]), the inhibition at 1 µM came out at 80.7%. In addition, the inhibition at 1 µM with HIV-1NL4-3 (setting [3]) turned out to be 80.7%.
On to `CC(C)(C)OC(=O)N1CCCCC1Cc1nn(-c2nc3ccccc3[nH]2)c(O)c1CCc1ccc(F)cc1` (centres unmarked) [Compound I-207, tert-butyl 2-{[1-(1H-1,3-benzodiazol-2-yl)-4-[2-(4-fluorophenyl)ethyl]-5-hydroxy-1H-pyrazol-3-yl]methyl}piperidine-1-carboxylate], for which, in the data set on HIV-1 NL4-3 (Human immunodeficiency virus 1, NL43, PBMC, 96 h), the IC50 is ≥ 1000 nM. In the data set on TZM-bl cell line, the “% Cell Viability” value was found to be 99.3% and the “Percent Viability @ 1 μM (TZM-bl cells)” value was found to be 99.3%. On HIV-1 NefNL4-3, the Kd was found to be 1.49 nM and the “RU30/RUNef (extent of binding)” value worked out at 4.14E- 03. In addition, the Kd at HIV-1 NefNL4-3 (setting [1]) was 809 nM. The inhibition at 1 µM with HIV-1NL4-3 (setting [2]) was 0%. Also, the inhibition at 1 µM in the data set on HIV-1NL4-3 (setting [3]) is -9.4%.
For the molecule `CC(C)(C)OC(=O)N1CCC(c2nn(-c3nc4ccc(Cl)cc4[nH]3)c(O)c2CCc2ccc(F)cc2)CC1` [Compound I-216, tert-butyl 4-[1-(5-chloro-1H-1,3-benzodiazol-2-yl)-4-[2-(4-fluorophenyl)ethyl]-5-hydroxy-1H-pyrazol-3-yl]piperidine-1-carboxylate], in the data set on HIV-1 NL4-3, the “HIV Replication PBMC IC50 vs. HIV NL4-3” value is given as “Not active”. Also, the “% Cell Viability” value with TZM-bl cell line came to 87.1%. Also, in the data set with TZM-bl cell line, the “Percent Viability @ 1 μM (TZM-bl cells)” value came to 87.1%. The Kd at HIV-1 NefNL4-3 was determined as 124 nM; at HIV-1 NefNL4-3 (setting [4]) it was 0.00871 nM; on HIV-1 NefNL4-3 (setting [5]) it was 0.00871 nM; on HIV-1 NefNL4-3 (setting [1]), 829 nM. Further, the “T, minutes (residence time)” value at HIV-1 NefNL4-3 (Table 4) amounted to 4.71E + 05 minutes. Further, the “RU30/RUNef (extent of binding)” value on HIV-1 NefNL4-3 worked out at 1.60E- 02. Besides, the inhibition at 1 µM with HIV-1NL4-3 (setting [2]) was found to be 100%; in the data set with HIV-1NL4-3 (setting [3]) it was 176%.
For `Oc1c(CC2CCCC2)c(-c2ccc(C(F)(F)F)cc2)nn1-c1nc2ccccc2[nH]1` [Compound I-123, 1-(1H-1,3-benzodiazol-2-yl)-4-(cyclopentylmethyl)-3-[4-(trifluoromethyl)phenyl]-1H-pyrazol-5-ol], the “HIV Replication PBMC IC50 vs. HIV NL4-3” value with HIV-1 NL4-3 is recorded as “Not active”. Also, in the data set on TZM-bl cell line, the “% Cell Viability” value is on record as 85.3%. Also, the “Percent Viability @ 1 μM (TZM-bl cells)” value with TZM-bl cell line is on record as 85.3%. In addition, the Kd was determined as 88.8 nM on HIV-1 NefNL4-3, 0.0936 nM on HIV-1 NefNL4-3 (setting [4]), 0.0936 nM at HIV-1 NefNL4-3 (setting [5]) and 87800 nM at HIV-1 NefNL4-3 (setting [1]). Besides, the “T, minutes (residence time)” value on HIV-1 NefNL4-3 (Table 4) came to 3.79E + 05 minutes. The “RU30/RUNef (extent of binding)” value at HIV-1 NefNL4-3 is 2.57E- 02. Moreover, the inhibition at 1 µM in the data set with HIV-1NL4-3 (setting [2]) and in the data set with HIV-1NL4-3 (setting [3]) was 96.1% throughout.
For the molecule `CC(C)(C)OC(=O)N1CCC(c2nn(-c3nc4ccccc4[nH]3)c(O)c2CCc2ccc(F)cc2)CC1` [Compound I-202, tert-butyl 4-[1-(1H-1,3-benzodiazol-2-yl)-4-[2-(4-fluorophenyl)ethyl]-5-hydroxy-1H-pyrazol-3-yl]piperidine-1-carboxylate], in the data set with HIV-1 NL4-3, the “HIV Replication PBMC IC50 vs. HIV NL4-3” value is given as “Not active”. The “% Cell Viability” value in the data set with TZM-bl cell line is given as 79.2%. Besides, the “Percent Viability @ 1 μM (TZM-bl cells)” value with TZM-bl cell line is on record as 79.2%. Also, the Kd came out at 0.00605 nM on HIV-1 NefNL4-3 (setting [4]) and 2220 nM at HIV-1 NefNL4-3 (setting [5]). In addition, the “T, minutes (residence time)” value at HIV-1 NefNL4-3 (Table 4) was 6.36E + 06 minutes. Also, the “RU30/RUNef (extent of binding)” value at HIV-1 NefNL4-3 came to 4.09E- 03. In addition, the inhibition at 1 µM in the data set with HIV-1NL4-3 (setting [2]) amounted to 100%; in the data set with HIV-1NL4-3 (setting [3]) it was 105%.
